Consider one compound from ChEMBL document CHEMBL1128912, “DNA cleavage of novel propargylic sulfones. Enhancement of potency via intercalating interaction” (Bioorg Med Chem Lett, 1996).

SMILES strings stand for the structures.

The experiment has as its system KB. As to the kind of experiment: Cytotoxicity was evaluated by using KB/P cancer cells. Type of experiment: functional, cell-based. The following applies: Homo sapiens.

For the compound `O=S(=O)(CC#CCCCCC#CCO)c1ccccc1`, the IC50 came to 5.3 µM.
